Reference: patent US8003658B2, “Quinazoline derivatives for inhibiting cancer cell growth and method for the preparation thereof” (Hanmi Holdings Co., Ltd., priority 2004, dated 2011)
Read-outs that look alike come from different tables or passages of the source.

How the values were obtained:
A431 (ATCC: CRL-1555) = test: Test of cancer cell growth inhibition (SRB), A431; details: read-out: IC50 A431
SK-Br3 (ATCC: HTB-30) = test: Test of cancer cell growth inhibition (SRB), SK-Br3; details: Homo sapiens, SK-BR-3, 72 h, read-out: IC50 SK-Br-3

IC50 (A431 (ATCC: CRL-1555); Homo sapiens, A-431, 72 h) [nM] | IC50 (SK-Br3 (ATCC: HTB-30)) [nM] | IC50 (A431 (ATCC: CRL-1555); EGFR overexpressed A431, 72 hours, SRB) [nM] | Compound
121 | 17 |  | C=CC(=O)N1CC=C[C@H]1C(=O)Nc1cc2c(Nc3ccc(OCc4ccccn4)c(Cl)c3)ncnc2cc1OC [Example 179, (2S)-1-acryloyl-2,5-dihydro-1H-pyrrol-2-carboxylic acid {4-[3-chloro-4-(pyridin-2-ylmethoxy)-phenylamino]-7-methoxy-quinazolin-6-yl}-amide]
438 | 63 |  | C=CC(=O)N1CSC[C@H]1C(=O)Nc1cc2c(Nc3ccc(OCc4ccccn4)c(Cl)c3)ncnc2cc1OC [Example 180, (4R)-3-acryloyl-thiazolidin-4-carboxylic acid {4-[3-chloro-4-(pyridin-2-ylmethoxy)-phenylamino]-7-methoxy-quinazolin-6-yl}-amide]
 | 13 | 218 | C=CC(=O)N1CCC1C(=O)Nc1ccc2ncnc(Nc3ccc(OCc4ccccn4)c(Cl)c3)c2c1 (stereo not drawn) [Example 181, 1-acryloyl-azetidine-2-carboxylic acid {4-[3-chloro-4-(pyridin-2-ylmethoxy)-phenylamino]-quinazolin-6-yl}-amide]
128 | 9 |  | C=CC(=O)N1CCC1C(=O)Nc1cc2c(Nc3ccc(OCc4ccccn4)c(Cl)c3)ncnc2cc1OC (stereo not drawn) [Example 182, 1-acryloyl-azetidine-2-carboxylic acid {4-[3-chloro-4-(pyridin-2-ylmethoxy)-phenylamino]-7-methoxy-quinazolin-6-yl}-amide]
1420 | 114 |  | C=CC(=O)N1CCC[C@H]1C(=O)Nc1cc2c(Nc3ccc(OCc4ccccn4)c(Cl)c3)ncnc2cc1N(C)C [Example 184, (2S)-1-acryloyl-pyrrolidine-2-carboxylic acid {4-[3-chloro-4-(pyridin-2-ylmethoxy)-phenylamino]-7-dimethylamino-quinazolin-6-yl}-amide]
22 | 3 |  | C=CC(=O)N1CCC[C@H]1C(=O)Nc1cc2c(Nc3ccc4c(cnn4Cc4ccccn4)c3)ncnc2cc1OC [Example 185, (2S)-1-acryloyl-pyrrolidine-2-carboxylic acid [7-methoxy-4-(1-pyridin-2-ylmethyl-1H-indazol-5-ylamino)-quinazolin-6-yl]-amide]
26 | 8 |  | C=CC(=O)N1CCC[C@H]1C(=O)Nc1cc2c(Nc3ccc(OCc4ccccn4)c(C)c3)ncnc2cc1OCC [Example 186, (2S)-1-acryloyl-pyrrolidine-2-carboxylic acid {4-[3-methyl-4-(pyridin-2-ylmethoxy)-phenylamino]-7-ethoxy-quinazolin-6-yl}-amide]
22 | 3 |  | C=CC(=O)N1CCC[C@H]1C(=O)Nc1cc2c(Nc3ccc(OCc4ccccn4)c(Cl)c3)ncnc2cc1OCCF [Example 187, (2S)-1-acryloyl-pyrrolidine-2-carboxylic acid [4-[3-chloro-4-(pyridin-2-ylmethoxy)-phenylamino]-7-(2-fluoro-ethoxy)-quinazolin-6-yl]-amide]
24 | 6 |  | C=CC(=O)N1CCC[C@H]1C(=O)Nc1cc2c(Nc3ccc4c(cnn4Cc4cccc(F)c4)c3)ncnc2cc1OC [Example 188, (2S)-1-acryloyl-pyrrolidine-2-carboxylic acid {4-[1-(3-fluoro-benzyl)-1H-indazol-5-ylamino]-7-methoxy-quinazolin-6-yl}-amide]
56 | 3 |  | C=CC(=O)N(C)[C@@H](C)C(=O)Nc1cc2c(Nc3ccc(OCc4ccccn4)c(Cl)c3)ncnc2cc1OC [Example 191, (1S)—N-(1-{4-[3-chloro-4-(pyridin-2-ylmethoxy)-phenylamino]-7-methoxy-quinazolin-6-ylcarbamoyl}ethyl)-N-methyl-acrylamide]
36 | 6 |  | C=CC(=O)NCCC(=O)Nc1cc2c(Nc3ccc(OCc4ccccn4)c(Cl)c3)ncnc2cc1F [Example 192, N-(2-{4-[3-chloro-4-(pyridin-2-ylmethoxy)-phenylamino]-7-fluoro-quinazolin-6-ylcarbamoyl}-ethyl)-acrylamide]
75 | 22 |  | C=CC=CCn1ncc2cc(Nc3ncnc4cc(OC)c(NC(=O)[C@@H]5CCCN5C(=O)C=C)cc34)ccc21 [Example 193, (2S)-1-acryloyl-pyrrolidine-2-carboxylic acid [7-methoxy-4-(1-penta-2,4-dienyl-1H-indazol-5-ylamino)-quinazolin-6-yl]-amide]
93 | 56 |  | C=CC(=O)N1CCC[C@H]1C(=O)Nc1cc2c(Nc3ccc(OCc4cccc(C)n4)c(Cl)c3)ncnc2cc1OC [Example 194, (2S)-1-acryloyl-pyrrolidine-2-carboxylic acid {4-[3-chloro-4-(6-methyl-pyridin-2-ylmethoxy)-phenylamino]-7-methoxy-quinazolin-6-yl}-amide]
119 | 44 |  | C=CC(=O)N1CCC1C(=O)Nc1cc2c(Nc3ccc(OCc4ccccn4)c(Cl)c3)ncnc2cc1F (stereo not drawn) [Example 195, 1-acryloyl-azetidine-2-carboxylic acid {4-[3-chloro-4-(pyridin-2-ylmethoxy)-phenylamino]-7-fluoro-quinazolin-6-yl}-amide]
88 | 25 |  | C=CC(=O)N1CCCCC1C(=O)Nc1cc2c(Nc3ccc(OCc4ccccn4)c(Cl)c3)ncnc2cc1OC (stereo not drawn) [Example 196, 1-acryloyl-piperidine-2-carboxylic acid {4-[3-chloro-4-(pyridin-2-ylmethoxy)-phenylamino]-7-methoxy-quinazolin-6-yl}-amide]
259 | 196 |  | C=CC(=O)N1CCC(C(=O)Nc2cc3c(Nc4ccc(OCc5ccccn5)c(Cl)c4)ncnc3cc2OC)CC1 [Example 197, 1-acryloyl-piperidine-4-carboxylic acid {4-[3-chloro-4-(pyridin-2-ylmethoxy)-phenylamino]-7-methoxy-quinazolin-6-yl}-amide]
47 | 24 |  | C=CC(=O)N1CCC(C(=O)Nc2cc3c(Nc4ccc(OCc5ccccn5)c(Cl)c4)ncnc3cc2OC)C1 (stereo not drawn) [Example 198, 1-acryloyl-pyrrolidine-3-carboxylic acid {4-[3-chloro-4-(pyridin-2-ylmethoxy)-phenylamino]-7-methoxy-quinazolin-6-yl}-amide]
145 | 96 |  | C=CC(=O)N1CCC1C(=O)Nc1cc2c(Nc3ccc(OCc4ccccn4)c(Cl)c3)ncnc2cc1OCC (stereo not drawn) [Example 199, 1-acryloyl-azetidine-2-carboxylic acid {4-[3-chloro-4-(pyridin-2-ylmethoxy)-phenylamino]-7-ethoxy-quinazolin-6-yl}-amide]
332 | 8 |  | C=CC(=O)N1CC(C(=O)Nc2cc3c(Nc4ccc(OCc5ccccn5)c(Cl)c4)ncnc3cc2OC)C1 [Example 200, 1-acryloyl-azetidine-3-carboxylic acid {4-[3-chloro-4-(pyridin-2-ylmethoxy)-phenylamino]-7-methoxy-quinazolin-6-yl}-amide]
148 | 25 |  | C=CC(=O)N1CCC[C@H](C(=O)Nc2cc3c(Nc4ccc(OCc5ccccn5)c(Cl)c4)ncnc3cc2OC)C1 [Example 201, (3S)-1-acryloyl-piperidine-3-carboxylic acid {4-[3-chloro-4-(pyridin-2-ylmethoxy)-phenylamino]-7-methoxy-quinazolin-6-yl}-amide]
105 | 6 |  | C=CC(=O)N(CC)[C@@H](C)C(=O)Nc1cc2c(Nc3ccc(OCc4ccccn4)c(Cl)c3)ncnc2cc1OC [Example 202, N-((1S)-1-{4-[3-chloro-4-(pyridin-2-ylmethoxy)-phenylamino]-7-methoxy-quinazolin-6-ylcarbamoyl}-ethyl)-N-ethyl-acrylamide]
269 | 34 |  | C=CC(=O)N1CCC[C@H]1C(=O)Nc1cc2c(Nc3ccc(OCCF)c(Cl)c3)ncnc2cc1OC [Example 203, (2S)-1-acryloyl-pyrrolidine-2-carboxylic acid {4-[3-chloro-4-(2-fluoro-ethoxy)-phenylamino]-7-methoxy-quinazolin-6-yl}-amide]
85 | 30 |  | C=CC(=O)N1CCC[C@H]1C(=O)Nc1cc2c(Nc3ccc(OCc4cccnc4)c(Cl)c3)ncnc2cc1OC [Example 204, (2S)-1-acryloyl-pyrrolidine-2-carboxylic acid {4-[3-chloro-4-(pyridin-3-ylmethoxy)-phenylamino]-7-methoxy-quinazolin-6-yl}-amide]
17 | 10 |  | C=CC(=O)NCC(F)C(=O)Nc1cc2c(Nc3ccc(OCc4ccccn4)c(Cl)c3)ncnc2cc1OC (stereo not drawn) [Example 206, N-(2-{4-[3-chloro-4-(pyridin-2-ylmethoxy)-phenylamino]-7-methoxy-quinazolin-6-ylcarbamoyl}-2-fluoro-ethyl)-acrylamide]
44 | 3 |  | C=CC(=O)N1CCC[C@H]1C(=O)Nc1cc2c(Nc3ccc(OCc4cccnc4)c(Cl)c3)ncnc2cc1OCCCN1CCOCC1 [Example 209, (2S)-1-acryloyl-pyrrolidine-2-carboxylic acid {4-[3-chloro-4-(pyridin-3-ylmethoxy)-phenylamino]-7-(3-morpholin-4-yl-propoxy)-quinazolin-6-yl}-amide]
98 | 9 |  | C=CC(=O)N[C@@H](C)CC(=O)Nc1cc2c(Nc3ccc(OCc4ccccn4)c(Cl)c3)ncnc2cc1OC [Example 212, (3S)-3-acryloylamino-N-{4-[3-chloro-4-(pyridin-2-ylmethoxy)-phenylamino]-7-methoxy-quinazolin-6-yl}-butyramide]
34 | 4 |  | C=CC(=O)N1CCC[C@H]1C(=O)Nc1cc2c(Nc3ccc(OCc4ccccn4)c(Cl)c3)ncnc2cc1OCCOC [Example 213, (2S)-1-acryloyl-pyrrolidine-2-carboxylic acid {4-[3-chloro-4-(pyridin-2-ylmethoxy)-phenylamino]-7-(2-methoxyethoxy)-quinazolin-6-yl}-amide]
